Measurements: patent US20250257054A1, “SALT FORMS OF A 4H-PYRAN-4-ONE STRUCTURED CYP11 A1 INHIBITOR” (ORION CORPORATION, priority 2021, published 2025)
Where a name gives a salt, the structure may show the parent alone. One block for each compound: values may come before it.

How the values were obtained:
Format in all cases: physicochemical
[1] = Short-term physical stability of salts at 40° C./75% RH for 2 weeks (XRPD); details: determined by XRPD
Protocol: (§1) XRPD measurements were performed with the X-ray powder diffractometer Bruker D8 Advance at room temperature, using a copper filled X-ray tube (40 kV×40 mA) as the X-ray source, CuKα (λ=1.5418 Å), a 0.6 mm divergence slit, 2.5° Soller slits on both the primary and secondary beams and the 1-dimensional LynxEye detector (with aperture angle of 2.91593°). Data collection was done in the range of 3.8-33° 2θ with 0.02° increments, at a scan speed of 0.3°/s.
Short-term physical stability of various salts was studied by exposure at 40° C./75% RH for 2 weeks followed by measurement by XRPD.

[2] = Crystalline transformation of form 2 on drying; details: higher drying temperatures (than about 20-60° C., under reduced pressure)
Protocol: In a preferred method, crystalline form 2 is prepared in high polymorphic purity and in consistent manner by first dissolving compound (I) in a mixture of acetonitrile and water, where the amount of water is from about 5% to about 15%, preferably from 6% to 12%, per volume of the mixture. The amount of compound (I) is suitably from about 5 g to about 15 g, preferably from about 9 g to 13 g, for example, about 11 g, per 100 ml of the solvent. If desired, activated carbon, celite and/or triamine metal scavenger may also be added. The mixture may be heated, for example, to a temperature of about 50-80° C., more specifically to about 70-80° C. The mixture can be thereafter filtered. To the filtrate is then added p-toluenesulfonic acid monohydrate, for example, in about equivalent molar amount, under heating at a temperature of about 50-80° C., more specifically at about 70° C. The mixture may then be cooled to about 60° C. and seeded, if desired. The mixture can then be stirred in this temperature for about 1 h, followed by cooling, for example to about 0-20° C., more specifically to about 5° C., to precipitate the product. The crystalline form 2 can be washed, for example, with water, and dried at about 20-60° C., preferably at about 25-35° C., for example at about 30° C., under reduced pressure. […]

[3] = Slurry stability of crystalline forms of p-toluenesulfonic acid salt in different water activity conditions (XRPD); details: for Water activity in which the crystalline form is favoured: slurry experiments, values stated as 'about'; for Resulting form 5° C. / Resulting form 25° C. / Resulting form 40° C.: slurry of Form 3 stirred 2-3 weeks
Protocol: as §1
Stability of the crystalline forms of p-toluenesulfonic acid salt in different water activity conditions was studied in slurry experiments where crystalline form 3 was stirred for 2-3 weeks at 5° C., 25° C. and 40° C. in mixtures of ethanol:water, acetonitrile (ACN):water, methanol: water and methanol alone. 0.5 ml of solvent was added to 25 mg of each sample. The resulting crystalline form was determined by XRPD.

[4] = ACN:water 92.1:7.9, water activity 0.81
[5] = ACN:water 96.3:3.7, water activity 0.58
[6] = EtOH:water 30:70, water activity >0.9
[7] = EtOH:water 83:17, water activity 0.64
[8] = EtOH:water 92.8:7.2, water activity 0.40
[9] = EtOH:water 96.7:3.3, water activity 0.22
[10] = MeOH:water 36:64, water activity 0.83
[11] = MeOH:water 77:23, water activity 0.52
[12] = MeOH:water 90:10, water activity 0.30
[13] = MeOH:water 95.3:4.7, water activity 0.16

Structure (SMILES): CS(=O)(=O)N1CCC(COc2coc(CN3Cc4ccc(C(F)(F)F)cc4C3)cc2=O)CC1 [Oxalic acid salt (form 1), 5-((1-(methyl-sulfonyl)piperidin-4-yl)methoxy)-2-((5-(trifluoromethyl)isoindolin-2-yl)methyl)-4H-pyran-4-one]
- Form after 2 weeks [1]: Form 1 + extra peaks

Structure (SMILES): CS(=O)(=O)N1CCC(COc2coc(CN3Cc4ccc(C(F)(F)F)cc4C3)cc2=O)CC1 [Maleic acid salt (form 1), 5-((1-(methyl-sulfonyl)piperidin-4-yl)methoxy)-2-((5-(trifluoromethyl)isoindolin-2-yl)methyl)-4H-pyran-4-one]
- Form after 2 weeks [1]: Form 1 + extra peaks

Structure (SMILES): CS(=O)(=O)N1CCC(COc2coc(CN3Cc4ccc(C(F)(F)F)cc4C3)cc2=O)CC1 [2-Naphthalenesulphonic acid salt (form 1)] [5-((1-(methyl-sulfonyl)piperidin-4-yl)methoxy)-2-((5-(trifluoromethyl)isoindolin-2-yl)methyl)-4H-pyran-4-one]
- Form after 2 weeks [1]: No change

Structure (SMILES): CS(=O)(=O)N1CCC(COc2coc(CN3Cc4ccc(C(F)(F)F)cc4C3)cc2=O)CC1 [Form 3, 5-((1-(methylsulfonyl)-piperidin-4-yl)methoxy)-2-((5-(trifluoromethyl)isoindolin-2-yl)methyl)-4H-pyran-4-one]
- Stability of the crystalline form in the slurry conditions ([3]; slurry in solvent:water mixtures and methanol, 5-40° C., 2-3 weeks): unstable
- Resulting form 5° C. [3, 4]: Form 2
- Resulting form 25° C. [3, 4]: Form 2
- Resulting form 40° C. [3, 4]: Form 2
- Resulting form 5° C. [3, 5]: Form 2
- Resulting form 25° C. [3, 5]: Form 2
- Resulting form 40° C. [3, 5]: Form 2
- Resulting form 5° C. [3, 6]: Form 2
- Resulting form 25° C. [3, 6]: Form 2
- Resulting form 40° C. [3, 6]: Form 2
- Resulting form 5° C. [3, 7]: Form 2
- Resulting form 25° C. [3, 7]: Form 2
- Resulting form 40° C. [3, 7]: Form 2
- Resulting form 5° C. [3, 8]: Form 1
- Resulting form 25° C. [3, 8]: Form 1
- Resulting form 40° C. [3, 8]: Form 1
- Resulting form 5° C. [3, 9]: Form 1
- Resulting form 25° C. [3, 9]: Form 1
- Resulting form 40° C. [3, 9]: Form 1
- Resulting form 5° C. ([3]; MeOH alone): Form 1
- Resulting form 25° C. ([3]; MeOH alone): Form 1
- Resulting form 40° C. ([3]; MeOH alone): Form 1
- Resulting form 5° C. [3, 10]: Form 2
- Resulting form 25° C. [3, 10]: Form 2
- Resulting form 40° C. [3, 10]: Form 2
- Resulting form 5° C. [3, 11]: Form 2
- Resulting form 25° C. [3, 11]: Form 2
- Resulting form 40° C. [3, 11]: Form 1
- Resulting form 5° C. [3, 12]: Form 1
- Resulting form 25° C. [3, 12]: Form 1
- Resulting form 40° C. [3, 12]: Form 1
- Resulting form 5° C. [3, 13]: Form 1
- Resulting form 25° C. [3, 13]: Form 1
- Resulting form 40° C. [3, 13]: Form 1

Structure (SMILES): CS(=O)(=O)N1CCC(COc2coc(CN3Cc4ccc(C(F)(F)F)cc4C3)cc2=O)CC1 [Hydrobromic acid salt (form 1), 5-((1-(methyl-sulfonyl)piperidin-4-yl)methoxy)-2-((5-(trifluoromethyl)isoindolin-2-yl)methyl)-4H-pyran-4-one]
- Form after 2 weeks [1]: No change

Structure (SMILES): CS(=O)(=O)N1CCC(COc2coc(CN3Cc4ccc(C(F)(F)F)cc4C3)cc2=O)CC1 [Hydrochloric acid salt (form 1), 5-((1-(methyl-sulfonyl)piperidin-4-yl)methoxy)-2-((5-(trifluoromethyl)isoindolin-2-yl)methyl)-4H-pyran-4-one]
- Form after 2 weeks [1]: No change

Structure (SMILES): CS(=O)(=O)N1CCC(COc2coc(CN3Cc4ccc(C(F)(F)F)cc4C3)cc2=O)CC1 [Benzenesulfonic acid salt (form 1), 5-((1-(methyl-sulfonyl)piperidin-4-yl)methoxy)-2-((5-(trifluoromethyl)isoindolin-2-yl)methyl)-4H-pyran-4-one]
- Form after 2 weeks [1]: No change

Structure (SMILES): CS(=O)(=O)N1CCC(COc2coc(CN3Cc4ccc(C(F)(F)F)cc4C3)cc2=O)CC1 [Methanesulfonic acid salt (form 1), 5-((1-(methyl-sulfonyl)piperidin-4-yl)methoxy)-2-((5-(trifluoromethyl)isoindolin-2-yl)methyl)-4H-pyran-4-one]
- Form after 2 weeks [1]: No change

Second part, led by results:

- Form after 2 weeks [1]: Form 3 + extra peaks
Structure (SMILES): CS(=O)(=O)N1CCC(COc2coc(CN3Cc4ccc(C(F)(F)F)cc4C3)cc2=O)CC1 [Oxalic acid salt (form 3), 5-((1-(methyl-sulfonyl)piperidin-4-yl)methoxy)-2-((5-(trifluoromethyl)isoindolin-2-yl)methyl)-4H-pyran-4-one]

- Form after 2 weeks [1]: No change
Structure (SMILES): CS(=O)(=O)N1CCC(COc2coc(CN3Cc4ccc(C(F)(F)F)cc4C3)cc2=O)CC1 [Oxalic acid salt (form 4), 5-((1-(methyl-sulfonyl)piperidin-4-yl)methoxy)-2-((5-(trifluoromethyl)isoindolin-2-yl)methyl)-4H-pyran-4-one]

- Water activity in which the crystalline form is favoured ([3]; 5-40° C., 2-3 weeks, listed as Crystalline form 2 of p-toluenesulfonic acid salt): higher than 0.5
- Form after 2 weeks [1]: No change
Structure (SMILES): CS(=O)(=O)N1CCC(COc2coc(CN3Cc4ccc(C(F)(F)F)cc4C3)cc2=O)CC1 [p-Toluenesulfonic acid salt (form 2), 5-((1-(methylsulfonyl)-piperidin-4-yl)methoxy)-2-((5-(trifluoromethyl)isoindolin-2-yl)methyl)-4H-pyran-4-one]
- Crystalline transformation on drying [2]: some transformation of crystalline form 2 into crystalline form 1

- Form after 2 weeks [1]: No change
Structure (SMILES): CS(=O)(=O)N1CCC(COc2coc(CN3Cc4ccc(C(F)(F)F)cc4C3)cc2=O)CC1 [Oxalic acid salt (form 2), 5-((1-(methyl-sulfonyl)piperidin-4-yl)methoxy)-2-((5-(trifluoromethyl)isoindolin-2-yl)methyl)-4H-pyran-4-one]

- Water activity in which the crystalline form is favoured ([3]; 5-40° C., 2-3 weeks, listed as crystalline form 1 of p-toluenesulfonic acid salt): up to 0.4
- Form after 2 weeks [1]: No change
Structure (SMILES): CS(=O)(=O)N1CCC(COc2coc(CN3Cc4ccc(C(F)(F)F)cc4C3)cc2=O)CC1 [p-Toluenesulfonic acid salt (form 1), 5-((1-(methylsulfonyl)-piperidin-4-yl)methoxy)-2-((5-(trifluoromethyl)isoindolin-2-yl)methyl)-4H-pyran-4-one]
